Source: the supplement of paper PMC10331698
± gives the standard deviation of the averaged measurements.

Key:
Assay in all cases: level (log10 ratio to DMSO vehicle control); higher = higher biomarker level / cell amount than vehicle control
Perfluorononanoic acid = compound: O=C(O)C(F)(F)C(F)(F)C(F)(F)C(F)(F)C(F)(F)C(F)(F)C(F)(F)C(F)(F)F [Perfluorononanoic acid] (in DMSO)
Procedure: (§1)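 BioMAP Diversity Plus panel of 12 human primary cell co-culture systems (3C, 4H, LPS, SAg, BT, BF4T, BE3C, CASM3C, HDF3CGF, KF3CT, MyoF, Mphg). Compounds were added 1 h before stimulation and left for 24 h (MyoF 48 h; BT 72 h for soluble read-outs or 6 d for IgG). Biomarkers were read by ELISA, cytotoxicity by SRB, PBMC viability and proliferation by Alamar Blue. Each well value was divided by the mean of 8 DMSO control wells on the same plate and log10 transformed; duplicate blinded samples were tested at 4 concentrations.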

[1] = compound: OCC(F)(F)C(F)(F)C(F)(F)C(F)(F)C(F)(F)C(F)(F)CO [1H,1H,8H,8H-Perfluorooctane-1,8-diol] (in DMSO)
Procedure: as §1

[2] = compound: O=S(=O)(O)CCC(F)(F)C(F)(F)C(F)(F)C(F)(F)C(F)(F)C(F)(F)C(F)(F)C(F)(F)F [8:2 Fluorotelomer sulfonic acid] (in DMSO)
Procedure: as §1

[3] = compound: OCC(F)(F)OC(F)(F)C(F)(F)OC(F)(F)C(F)(F)OC(F)(F)CO [1H,1H,11H,11H-Perfluorotetraethylene glycol] (in DMSO)
Procedure: as §1

[4] = compound: O=C(O)CCC(F)(C(F)(F)F)C(F)(F)F [4,4-bis(Trifluoromethyl)-4-fluoropropanoic acid] (in DMSO)
Procedure: as §1

[5] = compound: CCOC(=O)CC(=O)C(F)(F)C(F)(F)F [Ethyl pentafluoropropionyl acetate] (in DMSO)
Procedure: as §1

Perfluoroundecanoic acid = compound: O=C(O)C(F)(F)C(F)(F)C(F)(F)C(F)(F)C(F)(F)C(F)(F)C(F)(F)C(F)(F)C(F)(F)C(F)(F)F [Perfluoroundecanoic acid] (in DMSO); details: 6700 nM
Procedure: as §1

[6] = compound: CO[Si](C)(CCC(F)(F)C(F)(F)C(F)(F)C(F)(F)C(F)(F)C(F)(F)F)OC [Dimethoxymethyl((perfluorohexyl)ethyl)silane] (in DMSO)
Procedure: as §1

Test System	level (log10) (Perfluorononanoic acid; 6700 nM)	level (log10) (Perfluorononanoic acid; 20000 nM)	level (log10) ([1]; 6700 nM)	level (log10) ([1]; 20000 nM)	level (log10) ([1]; 60000 nM)	level (log10) ([2]; 6700 nM)	level (log10) ([2]; 20000 nM)	level (log10) ([2]; 60000 nM)	level (log10) ([3]; 6700 nM)	level (log10) ([3]; 20000 nM)	level (log10) ([3]; 60000 nM)	level (log10) ([4]; 6700 nM)	level (log10) ([4]; 20000 nM)	level (log10) ([4]; 60000 nM)	level (log10) ([5]; 6700 nM)	level (log10) ([5]; 20000 nM)	level (log10) ([5]; 60000 nM)	level (log10) (Perfluoroundecanoic acid)	level (log10) ([6]; 6700 nM)	level (log10) ([6]; 20000 nM)
BE3C:CD87/uPAR	0.046 ± 0.013	0.0495 ± 0.019	-0.002 ± 0.0085	0.026 ± 0.0085	-0.0195 ± 0.00071	0.0225 ± 0.0035	0.0135 ± 0.011	-0.01 ± 0.031	0.0025 ± 0.0078	0.01 ± 0.0071	-0.0355 ± 0.0078	0.0005 ± 0.028	-0.004 ± 0.044	-0.01 ± 0.0028	0.0145 ± 0.03	-0.0045 ± 0.023	0.0065 ± 0.03	0.138 ± 0.019	0.0225 ± 0.013	0.0075 ± 0.0078
BE3C:CXCL8/IL-8	-0.03 ± 0.0057	-0.175 ± 0.0042	-0.021 ± 0.027	-0.0325 ± 0.023	-0.0245 ± 0.066	-0.0045 ± 0.022	-0.06 ± 0.0014	-0.134 ± 0.005	-0.0165 ± 0.0035	-0.071 ± 0.033	-0.0405 ± 0.056	-0.0055 ± 0.011	-0.025 ± 0.033	-0.019 ± 0.033	0.0095 ± 0.03	0.017 ± 0.021	0.032 ± 0.0014	-0.113	-0.006 ± 0.0085	0.038 ± 0.038
BE3C:CXCL9/MIG	-0.019 ± 0.013	-0.0195 ± 0.0021	0.004 ± 0.0085	0 ± 0.016	-0.006 ± 0.0071	-0.002 ± 0.0085	-0.015 ± 0.0028	-0.03 ± 0.011	-0.005 ± 0.0042	0.004 ± 0.0071	-0.0355 ± 0.015	-0.01 ± 0.014	-0.0085 ± 0.022	-0.0135 ± 0.016	0.001 ± 0.0099	0.001 ± 0.0028	0.006 ± 0.0028	-0.0125 ± 0.0064	0.002 ± 0.0042	0.001 ± 0.0071
BE3C:CXCL10/IP-10	-0.039 ± 0.025	-0.145 ± 0.031	0.003 ± 0.013	-0.006 ± 0.0014	-0.018 ± 0.0028	-0.0205 ± 0.012	-0.122 ± 0.019	-0.237 ± 0.02	-0.012 ± 0.0028	-0.0315 ± 0.021	-0.167 ± 0.028	0.006 ± 0.034	0.0035 ± 0.023	-0.0045 ± 0.0035	-0.004 ± 0.011	-0.013 ± 0.0028	-0.008 ± 0.0042	-0.4655 ± 0.0021	-0.0025 ± 0.0078	-0.0065 ± 0.0021
BE3C:CXCL11/I-TAC	-0.01 ± 0.016	-0.0315 ± 0.044	-0.006 ± 0.0085	-0.0045 ± 0.026	-0.0165 ± 0.0064	0.0385 ± 0.0021	0.016 ± 0.0071	-0.0915 ± 0.015	-0.0135 ± 0.0021	-0.03 ± 0.0028	-0.092 ± 0.028	0.0195 ± 0.016	0.0015 ± 0.012	-0.006 ± 0.0099	0.002 ± 0.028	0.002 ± 0.0099	-0.0015 ± 0.0078	-0.114 ± 0.047	-0.0055 ± 0.019	-0.0125 ± 0.0035
BE3C:EGFR	-0.023 ± 0.028	-0.0285 ± 0.03	-0.019 ± 0.024	-0.01 ± 0.017	-0.0315 ± 0.005	0.002 ± 0.0028	-0.014 ± 0.018	0.004 ± 0.0099	0.0055 ± 0.011	-0.0005 ± 0.0078	-0.034 ± 0.0014	0.003 ± 0.02	-0.0105 ± 0.018	-0.012 ± 0.014	-0.006 ± 0.0099	0.0025 ± 0.005	-0.006 ± 0.023	-0.064 ± 0.0014	0.001 ± 0.011	-0.01 ± 0.017
BE3C:HLA-DR	-0.039 ± 0.064	-0.066 ± 0.02	0.009	-0.0245 ± 0.0064	-0.039 ± 0.014	-0.0175 ± 0.037	-0.111 ± 0.005	-0.255 ± 0.0014	-0.03 ± 0.011	-0.016 ± 0.0014	-0.163 ± 0.013	-0.011	-0.0125 ± 0.005	0.0065 ± 0.029	0.014 ± 0.023	-0.006 ± 0.0014	-0.0005 ± 0.005	-0.0815 ± 0.022	-0.0045 ± 0.0021	-0.0235 ± 0.012
BE3C:IL-1alpha	-0.032 ± 0.024	-0.0625 ± 0.023	0.002 ± 0.0042	0.0015 ± 0.0064	0.0055 ± 0.029	0.016 ± 0.027	-0.0055 ± 0.0064	-0.043 ± 0.037	-0.001 ± 0.024	-0.0185 ± 0.0035	-0.0065 ± 0.057	0.0065 ± 0.022	-0.0105 ± 0.0078	0.007 ± 0.02	0.0125 ± 0.03	-0.011 ± 0.044	0.0285 ± 0.005	-0.069 ± 0.0042	0.0025 ± 0.018	0.021 ± 0.0071
BF4T:CCL2/MCP-1	-0.0115 ± 0.029	-0.154 ± 0.026	-0.0075 ± 0.0064	-0.017 ± 0.0014	-0.009 ± 0.024	0.037 ± 0.023	-0.019 ± 0.0028	-0.002 ± 0.034	-0.0295 ± 0.012	-0.119 ± 0.016	-0.227 ± 0.013	0.016 ± 0.0028	0.026 ± 0.018	0.0015 ± 0.016	-0.006 ± 0.011	-0.0145 ± 0.00071	-0.0015 ± 0.0078	-0.009 ± 0.023	-0.0175 ± 0.00071	0.01 ± 0.021
BF4T:CCL26/Eotaxin-3	-0.0345 ± 0.037	-0.288 ± 0.0085	0.004 ± 0.0057	-0.009 ± 0.033	-0.019 ± 0.018	-0.0635 ± 0.05	-0.179 ± 0.05	-0.203 ± 0.0099	0.0395 ± 0.025	-0.013 ± 0.021	-0.0675 ± 0.0064	0.028 ± 0.024	0.004 ± 0.0028	0.0185 ± 0.042	0.014 ± 0.0014	0.003 ± 0.014	0.0015 ± 0.03	-0.212 ± 0.014	0.0285 ± 0.011	-0.0075 ± 0.0092
BF4T:CD54/ICAM-1	-0.0035 ± 0.021	-0.05 ± 0.014	-0.0275 ± 0.0092	-0.015 ± 0.013	-0.029 ± 0.017	-0.006 ± 0.0014	-0.0175 ± 0.00071	-0.0325 ± 0.013	-0.002 ± 0.023	-0.03 ± 0.0014	-0.0815 ± 0.0064	0.0175 ± 0.013	0.006 ± 0.0071	0.002 ± 0.013	-0.0075 ± 0.0064	-0.003 ± 0.014	-0.02 ± 0.0071	-0.0175 ± 0.026	-0.006 ± 0.0071	-0.008 ± 0.0099
BF4T:CD90	-0.0095 ± 0.0035	-0.045 ± 0.0028	-0.011 ± 0.023	-0.005 ± 0.028	-0.014 ± 0.018	-0.008 ± 0.0028	-0.018 ± 0.0014	-0.0355 ± 0.0092	-0.005 ± 0.0042	-0.03 ± 0.0014	-0.071 ± 0.0085	-0.0095 ± 0.026	-0.0055 ± 0.019	0.0005 ± 0.0078	-0.009 ± 0.018	-0.0015 ± 0.013	-0.0135 ± 0.012	-0.016 ± 0.0028	0.0085 ± 0.018	0 ± 0.021
BF4T:CD106/VCAM-1	-0.084 ± 0.086	-0.129 ± 0.035	-0.006 ± 0.014	0.001 ± 0.0014	-0.006 ± 0.0057	0.0035 ± 0.035	-0.0285 ± 0.03	-0.041 ± 0.0028	0.0765 ± 0.0092	-0.018 ± 0.037	-0.0835 ± 0.043	0.018 ± 0.011	-0.011 ± 0.031	-0.0445 ± 0.0021	-0.0035 ± 0.016	0.0155 ± 0.013	-0.037 ± 0.031	-0.032 ± 0.041	0.018 ± 0.0014	-0.003 ± 0.02
BF4T:CXCL8/IL-8	0.048 ± 0.0028	0.0165 ± 0.00071	-0.003 ± 0.0042	-0.0095 ± 0.0064	0.001 ± 0.0071	0.0015 ± 0.0035	-0.0105 ± 0.0078	-0.0055 ± 0.0078	-0.0155 ± 0.026	-0.0265 ± 0.026	-0.0245 ± 0.03	-0.0085 ± 0.03	0.028 ± 0.028	0.0115 ± 0.0021	0.0095 ± 0.012	-0.0015 ± 0.023	0.021 ± 0.011	0.0815 ± 0.026	-0.005 ± 0.027	0.012 ± 0.018
